{"source": "paper PMC7065195", "about": "(2020)", "key": {"[1]": {"system": "poly dAdT–poly dAdT (poly(dA-dT)2, AT-DNA) (DNA, polymer) AT", "assay": "UV thermal melting at 260 nm", "conditions": "Na+ (sodium cacodylate, I=0.05 M); pH 7.0; ratio r=[compound]/[polynucleotide]=0.1; per base"}, "[2]": {"system": "poly A–poly U (poly rA–poly rU, AU-RNA) (RNA, polymer) A/U", "assay": "UV thermal melting at 260 nm", "conditions": "Na+ (sodium cacodylate, I=0.05 M); pH 7.0; ratio r=[compound]/[polynucleotide]=0.1; per base"}}, "data": [{"smiles": "Cc1cc(-c2ccc(-c3ccc(-c4cc(C)c(B(c5c(C)cc([N+](C)(C)C)cc5C)c5c(C)cc([N+](C)(C)C)cc5C)c(C)c4)s3)s2)cc(C)c1B(c1c(C)cc([N+](C)(C)C)cc1C)c1c(C)cc([N+](C)(C)C)cc1C", "values": [{"measurement": "ΔTm", "setting": "[1]", "result": "+10.0 ± 0.5 °C"}, {"measurement": "ΔTm", "setting": "[2]", "result": "+9.5 ± 0.5 °C"}]}]}
